ChEMBL document CHEMBL3885861, “Open TG-GATES”

Species: Rattus norvegicus
Experiment: Open TG-GATES - Regimen: Daily Repeat
Type: toxicity, organism-based, Sprague-Dawley
Design: regimen Daily Repeat, gender Male, age 6 weeks
Settings: in vivo, po, route gavage; for Bas / Eos / Fbg / Hb / Ht / Lym / MCV / Mono / Neu / PT / Plat / RBC / Ret / WBC / APTT / MCH / MCHC: tissue Blood; for KIDNEY_L / KIDNEY_R / KIDNEY_TOTAL: tissue Kidney; for LIVER: tissue Liver; for ALP / ALT / AST / BUN / CRE / DBIL / GLC / IP / K / LDH / Na / PL / RALB / TBIL / TC / TG / TP / gamma-GTP / Ca: tissue Plasma
[1] = 300 mg/kg, 72 h, dose level Middle, time 3 day
[2] = 300 mg/kg, […], dose level Middle, time 7 day
[3] = 300 mg/kg, […], dose level Middle, time 14 day
[4] = 300 mg/kg, […], dose level Middle, time 28 day
[5] = 1000 mg/kg, 72 h, dose level High, time 3 day
[6] = 1000 mg/kg, […], dose level High, time 7 day
[7] = 1000 mg/kg, […], dose level High, time 14 day
[8] = 1000 mg/kg, […], dose level High, time 28 day

O=C(O)c1cn(C2CC2)c2cc(N3CCNCC3)c(F)cc2c1=O [CIPROFLOXACIN]
Bas [1]: 0% | Eos [1]: 1% | Fbg [1]: 217 mg/dL | Hb [1]: 13 g/dL | Ht [1]: 38.7% | Lym [1]: 78.4% | MCV [1]: 63.5 fL | Mono [1]: 6% | Neu [1]: 14.4% | PT [1]: 12.4 s | Plat [1]: 103.1 x10_4/uL | RBC [1]: 609 x10_4/ul | Ret [1]: 6.9% | WBC [1]: 87 x10_2/uL | KIDNEY_L [1]: 0.9 g | KIDNEY_R [1]: 0.9 g | KIDNEY_TOTAL [1]: 1.8 g | LIVER [1]: 8.6 g | ALP [1]: 998 IU/L | ALT [1]: 37.8 IU/L | AST [1]: 68.4 IU/L | BUN [1]: 16.4 mg/dL | CRE [1]: 0.5 mg/dL | DBIL [1]: 0.014 mg/dL | GLC [1]: 182 mg/dL | IP [1]: 9.1 mg/dL | K [1]: 5 meq/L | LDH [1]: 81 IU/L | Na [1]: 140.4 meq/L | PL [1]: 148.8 mg/dL | RALB [1]: 3.8 g/dL | TBIL [1]: 0.3 mg/dL | TC [1]: 91 mg/dL | TG [1]: 49.4 mg/dL | TP [1]: 5.8 g/dL | gamma-GTP [1]: 2.2 IU/L | TERMINAL_BW [2]: 237.8 g | TERMINAL_BW [3]: 282.8 g | TERMINAL_BW [4]: 378.4 g | APTT [2]: 16 s | Bas [2]: 0% | Eos [2]: 0.6% | Fbg [2]: 218.5 mg/dL | Hb [2]: 13.2 g/dL | Ht [2]: 39.7% | Lym [2]: 80.4% | MCH [2]: 21.4 pg | MCHC [2]: 33.4% | MCV [2]: 64 fL | Mono [2]: 4.8% | Neu [2]: 14% | PT [2]: 12.4 s | Plat [2]: 98.1 x10_4/uL | RBC [2]: 620.2 x10_4/ul | Ret [2]: 6.7% | WBC [2]: 128.7 x10_2/uL | APTT [3]: 16.4 s | Bas [3]: 0% | Eos [3]: 1% | Fbg [3]: 251 mg/dL | Hb [3]: 13.9 g/dL | Ht [3]: 41.6% | Lym [3]: 83.4% | MCH [3]: 20.4 pg | MCHC [3]: 33.4% | MCV [3]: 61.2 fL | Mono [3]: 5% | Neu [3]: 10.6% | PT [3]: 10 s | Plat [3]: 117.4 x10_4/uL | RBC [3]: 680.8 x10_4/ul | Ret [3]: 6.4% | WBC [3]: 162 x10_2/uL | APTT [4]: 16.7 s | Bas [4]: 0% | Eos [4]: 0.8% | Fbg [4]: 245.2 mg/dL | Ht [4]: 44% | Lym [4]: 83.2% | MCH [4]: 19.3 pg | MCHC [4]: 33.2% | MCV [4]: 58.1 fL | Mono [4]: 5% | Neu [4]: 10.8% | Plat [4]: 100 x10_4/uL | RBC [4]: 756.8 x10_4/ul | Ret [4]: 3.2% | WBC [4]: 123.6 x10_2/uL | KIDNEY_L [2]: 1 g | KIDNEY_R [2]: 1 g | KIDNEY_TOTAL [2]: 2.1 g | KIDNEY_L [3]: 1.1 g | KIDNEY_R [3]: 1.1 g | KIDNEY_TOTAL [3]: 2.3 g | KIDNEY_L [4]: 1.3 g | KIDNEY_R [4]: 1.3 g | KIDNEY_TOTAL [4]: 2.6 g | LIVER [2]: 10.8 g | LIVER [3]: 12.3 g | LIVER [4]: 16 g | ALP [2]: 917.6 IU/L | AST [2]: 66.4 IU/L | BUN [2]: 20 mg/dL | CRE [2]: 0.5 mg/dL | Ca [2]: 11.4 mg/dL | DBIL [2]: 0.004 mg/dL | GLC [2]: 173.8 mg/dL | IP [2]: 9 mg/dL | K [2]: 4.9 meq/L | LDH [2]: 65.2 IU/L | Na [2]: 141.6 meq/L | PL [2]: 160.8 mg/dL | RALB [2]: 4 g/dL | TBIL [2]: 0.3 mg/dL | TC [2]: 90 mg/dL | TG [2]: 86.6 mg/dL | TP [2]: 5.8 g/dL | gamma-GTP [2]: 1.2 IU/L | ALP [3]: 973.2 IU/L | ALT [3]: 31.6 IU/L | AST [3]: 59.2 IU/L | BUN [3]: 20.4 mg/dL | CRE [3]: 0.6 mg/dL | Ca [3]: 11 mg/dL | DBIL [3]: 0.008 mg/dL | GLC [3]: 184.8 mg/dL | IP [3]: 7.8 mg/dL | K [3]: 4.8 meq/L | LDH [3]: 83.4 IU/L | Na [3]: 139 meq/L | PL [3]: 160 mg/dL | RALB [3]: 4 g/dL | TBIL [3]: 0.3 mg/dL | TG [3]: 105.8 mg/dL | TP [3]: 6 g/dL | gamma-GTP [3]: 2.8 IU/L | ALP [4]: 655 IU/L | ALT [4]: 33.8 IU/L | AST [4]: 59.4 IU/L | BUN [4]: 19.8 mg/dL | CRE [4]: 0.4 mg/dL | DBIL [4]: 0.004 mg/dL | GLC [4]: 180.8 mg/dL | IP [4]: 7.7 mg/dL | K [4]: 4.4 meq/L | LDH [4]: 102.2 IU/L | Na [4]: 140.6 meq/L | PL [4]: 172 mg/dL | RALB [4]: 4.1 g/dL | TBIL [4]: 0.3 mg/dL | TC [4]: 82.6 mg/dL | TG [4]: 184.6 mg/dL | TP [4]: 6.6 g/dL | gamma-GTP [4]: 1 IU/L | TERMINAL_BW [5]: 203.7 g | APTT [5]: 18.7 s | Bas [5]: 0% | Eos [5]: 1% | Fbg [5]: 222 mg/dL | Hb [5]: 12.8 g/dL | Ht [5]: 38.4% | Lym [5]: 83.2% | MCH [5]: 21.2 pg | MCHC [5]: 33.4% | Mono [5]: 6% | Neu [5]: 10% | PT [5]: 12.3 s | Plat [5]: 101.1 x10_4/uL | RBC [5]: 603.4 x10_4/ul | Ret [5]: 6% | WBC [5]: 121.3 x10_2/uL | KIDNEY_L [5]: 0.9 g | KIDNEY_R [5]: 1 g | KIDNEY_TOTAL [5]: 1.9 g | LIVER [5]: 9.6 g | ALP [5]: 962.6 IU/L | ALT [5]: 39 IU/L | AST [5]: 65.2 IU/L | BUN [5]: 16.8 mg/dL | CRE [5]: 0.5 mg/dL | Ca [5]: 11.2 mg/dL | DBIL [5]: 0.004 mg/dL | GLC [5]: 183.2 mg/dL | IP [5]: 9.4 mg/dL | K [5]: 4.9 meq/L | LDH [5]: 143.2 IU/L | Na [5]: 140.6 meq/L | PL [5]: 139.2 mg/dL | RALB [5]: 3.8 g/dL | TBIL [5]: 0.2 mg/dL | TC [5]: 86 mg/dL | TP [5]: 5.7 g/dL | gamma-GTP [5]: 1.4 IU/L | TERMINAL_BW [6]: 228.1 g | TERMINAL_BW [7]: 267.6 g | TERMINAL_BW [8]: 381.8 g | APTT [6]: 16 s | Bas [6]: 0% | Eos [6]: 0.8% | Fbg [6]: 231.8 mg/dL | Hb [6]: 13.5 g/dL | Ht [6]: 40.4% | Lym [6]: 81.2% | MCH [6]: 21.1 pg | MCHC [6]: 33.5% | MCV [6]: 63 fL | Mono [6]: 5.4% | Neu [6]: 12.8% | Plat [6]: 106.3 x10_4/uL | RBC [6]: 640.8 x10_4/ul | Ret [6]: 6.4% | WBC [6]: 154.8 x10_2/uL | APTT [7]: 16.2 s | Bas [7]: 0% | Eos [7]: 0.8% | Fbg [7]: 255.2 mg/dL | Hb [7]: 14.3 g/dL | Ht [7]: 43% | Lym [7]: 82.8% | MCH [7]: 20.4 pg | MCHC [7]: 33.2% | MCV [7]: 61.6 fL | Mono [7]: 4.4% | Neu [7]: 12.4% | PT [7]: 10.2 s | Plat [7]: 97.3 x10_4/uL | RBC [7]: 699.2 x10_4/ul | Ret [7]: 5.7% | WBC [7]: 139.4 x10_2/uL | Bas [8]: 0% | Eos [8]: 1% | Fbg [8]: 248 mg/dL | Hb [8]: 14.7 g/dL | Lym [8]: 85% | MCH [8]: 19.5 pg | MCHC [8]: 33.5% | MCV [8]: 58.2 fL | Mono [8]: 3.4% | Neu [8]: 10.8% | Plat [8]: 110.7 x10_4/uL | RBC [8]: 757.8 x10_4/ul | Ret [8]: 3.5% | WBC [8]: 156.8 x10_2/uL | KIDNEY_L [6]: 1 g | KIDNEY_R [6]: 1 g | KIDNEY_TOTAL [6]: 2 g | KIDNEY_L [7]: 1.1 g | KIDNEY_R [7]: 1.1 g | KIDNEY_TOTAL [7]: 2.2 g | KIDNEY_L [8]: 1.4 g | KIDNEY_R [8]: 1.4 g | KIDNEY_TOTAL [8]: 2.8 g | LIVER [6]: 10.5 g | LIVER [7]: 11 g | LIVER [8]: 15 g | ALP [6]: 850.4 IU/L | AST [6]: 64 IU/L | BUN [6]: 21.2 mg/dL | CRE [6]: 0.5 mg/dL | Ca [6]: 11.5 mg/dL | DBIL [6]: 0 mg/dL | GLC [6]: 182.4 mg/dL | IP [6]: 9.6 mg/dL | K [6]: 5.1 meq/L | LDH [6]: 96.8 IU/L | Na [6]: 141 meq/L | PL [6]: 158.8 mg/dL | RALB [6]: 3.8 g/dL | TBIL [6]: 0.2 mg/dL | TC [6]: 86 mg/dL | TG [6]: 90.2 mg/dL | TP [6]: 5.8 g/dL | gamma-GTP [6]: 1.6 IU/L | ALP [7]: 871.8 IU/L | AST [7]: 61.4 IU/L | BUN [7]: 22.8 mg/dL | CRE [7]: 0.6 mg/dL | DBIL [7]: 0.03 mg/dL | GLC [7]: 182.6 mg/dL | IP [7]: 7.8 mg/dL | K [7]: 4.8 meq/L | LDH [7]: 171.8 IU/L | Na [7]: 139.2 meq/L | PL [7]: 169 mg/dL | RALB [7]: 4 g/dL | TBIL [7]: 0.2 mg/dL | TC [7]: 92 mg/dL | TP [7]: 6.1 g/dL | gamma-GTP [7]: 1.8 IU/L | ALP [8]: 690 IU/L | ALT [8]: 32.4 IU/L | AST [8]: 51.8 IU/L | BUN [8]: 19.4 mg/dL | CRE [8]: 0.4 mg/dL | Ca [8]: 11.2 mg/dL | DBIL [8]: 0.022 mg/dL | GLC [8]: 180.6 mg/dL | IP [8]: 7.5 mg/dL | K [8]: 4.4 meq/L | LDH [8]: 160.6 IU/L | Na [8]: 140.2 meq/L | PL [8]: 173 mg/dL | RALB [8]: 4.1 g/dL | TBIL [8]: 0.2 mg/dL | TC [8]: 96 mg/dL | TG [8]: 102 mg/dL | TP [8]: 6.6 g/dL | gamma-GTP [8]: 2.4 IU/L
